Data published in patent US20240415814A1, “PHARMACEUTICAL COMPOSITION COMPRISING 1-(3-CYANO-1-ISOPROPYL-INDOL-5-YL)PYRAZOLE-4-CARBOXYLIC ACID” (LG CHEM, LTD., priority 2021, published 2024).

Key:
serum uric acid [1] = assay: Pharmacodynamics (serum uric acid) according to renal function of patients; type: in vivo, human; conditions: for AUEC0-24 of serum uric acid (baseline corrected), geometric LS mean / Cmean, 24 of serum uric acid (baseline corrected), geometric LS mean / Emax of serum uric acid (baseline corrected), geometric LS mean: 200 mg once daily, Day 7
Description: PK and PD of the compound of Example 1 were assessed under patient groups with various degrees of renal function. […] A total of 37 patients were classified into 4 groups as follows based on renal function according to eGFR which was calculated by MDRD formula: • Normal: eGFR≥90 mL/min/1.73 m^2, n=13 • Mild (mild renal function impairment): eGFR 60-less than 90 mL/min/1.73 m^2, n=8 • Moderate (moderate renal function impairment): eGFR 30-less than 60 mL/min/1.73 m^2, n=8 • Severe (severe renal function impairment): eGFR<30 mL/min/1.73 m^2 and not on hemodialysis, n=8
Blood and urine samples were collected before dosing and up to 24 or 48 hours after the final dosing for PK/PD assessment.
An analysis of variance (ANOVA) model was fitted to the log-transformed baseline corrected PD parameters, with renal function impairment group fitted as a fixed effect. Point estimates and 90% CIs for differences between the least square means on the log scale were exponentiated to express the results as ratios of geometric means and CIs on the original scale.

serum uric acid [2] = assay: Phase 2 clinical trial (NCT03934099): serum uric acid concentration in gout patients; type: in vivo, human; conditions: for average maximum degree of reduction in serum uric acid: FIG. 3; for patients with serum uric acid concentration <6 mg/dL: gout patients, with colchicine 0.6 mg; for average serum uric acid concentration: within 2 weeks after starting administration
Description: A phase 2 clinical trial was conducted to analyze the dosage, TEAEs, and the like when the compound of Formula 1 (1-(3-cyano-1-isopropyl-indol-5-yl)pyrazol-4-carboxylic acid; compound of Example 1) is administered to a gout patient group.
• 1. Written informed consent (signed and dated) provided voluntarily prior to the start of the study. • 2. Male or female aged from 18 to 75 • 3. History or experience of hyperuricemia and gout in accordance with the criteria of the American College of Rheumatology. • 4. Self-reported history of 2 or more gout flare within 12 months prior to screening visit (Visit 1). • 5. Serum uric acid (sUA) levels at Visit 1 of 6.0 mg/dL or more in subjects who were receiving urate lower therapy (ULT) with allopurinol, febuxostat, probenecid, or lesinurad; and sUA levels at Visit 1 of 8.0 mg/dL or more and 12.0 mg/dL or less in subjects who had no history of receiving the ULT or were not receiving the ULT at visit 1. • 6. sUA levels of 8.0 mg/dL or more and 12.0 mg/dL or less at Visit 3. • 7. Body mass index of 42 kg/m^2 or less at screening visit (Visit 1). • 8. Estimated glomerular filtration rate (eGFR) of 60 mL/min/1.73 m^2 or more at screening visit (Visit 1). • 9. Subjects of childbearing potential with a negative pregnancy test result at screening visit (Visit 1). Subjects (female subjects of childbearing potential and male subjects with partners of childbearing potential) consented to use adequate methods of contraception to avoid pregnancy during the study period. • 10. Able to understand the study procedure and relevant risk, and willing to comply with the visit/protocol schedule.
• 1. Presence of secondary hyperuricemia caused by myeloproliferative disorder, organ transplantation, or the like. • 2. Experience of any active acute gout flare within 3 weeks prior to screening visit (Visit 1). • 3. Aspartate aminotransferase or alanine aminotransferase level exceeds 2 times upper limit of normal (ULN) at screening visit (Visit 1). • 4. Creatine kinase level exceeds 2.5 times ULN at screening visit (Visit 1). • 5. Presence of previous hypersensitivity to colchicine. • 6. Patients who have ever prescribed pegloticase within 3 months prior to screening visit (Visit 1). • 7. If a stable dose of drugs (losartan, fibrate, thiazide diuretics, loop diuretics, and acetylsalicylic acid) known to affect sUA levels has not been administered during the past 6 weeks prior to screening visit (Visit 1), acetylsalicylic acid is not allowed to use 325 mg/day or more. • 8. Patients who have ever received systemic corticosteroids for 10 or more consecutive days within 1 month prior to screening visit (Visit 1). • 9. Presence of need or potential availability of systemic immunosuppressive drugs or immunomodulatory therapies (e.g., azathioprine, 6-mercaptopurine, and cyclosporine) • 10. Patients who have received high or moderate doses of cytochrome P450 3A4 inhibitors or P-glycoprotein inhibitors within 14 days prior to screening visit (Visit 1). • 11. History of xanthinuria. • 12. History of rheumatoid arthritis. • 13. Presence of active peptic ulcer disease requiring treatment. • 14. Presence of unstable angina, New York Heart Association class III or IV heart failure, myocardial infarction, stroke, deep vein thrombosis, percutaneous coronary intervention (with or without stent), or coronary artery bypass graft within the past 12 months prior to screening visit (Visit 1); current administration of anticoagulants; or the presence of clinically significant electrocardiogram abnormalities in the investigator's opinion at screening visit (Visit 1). • 15. Presence of uncontrolled hypertension (systolic blood pressure>160 mmHg or diastolic blood pressure>95 mmHg) at screening visit (Visit 1). • 16. History of myositis/myopathy, rhabdomyolysis, Stevens-Johnson syndrome, or toxic epidermal necrolysis. • 17. […]

[3] = normal renal function (control)
[4] = 200 mg/day oral, 12 weeks, listed as 1-(3-cyano-1-isopropyl-indol-5-yl)pyrazol-4-carboxylic acid
[5] = mild renal function impairment (eGFR 60-<90), 50 mg, 12 weeks
[6] = mild renal function impairment (eGFR 60-<90), 100 mg, 12 weeks
[7] = mild renal function impairment (eGFR 60-<90), 200 mg, 12 weeks
[8] = moderate renal function impairment (eGFR 30-<60), at each dose (50, 100, 200 mg), 12 weeks
[9] = normal renal function (eGFR>=90), 50 mg, 12 weeks
[10] = normal renal function (eGFR>=90), 100 mg, 12 weeks
[11] = normal renal function (eGFR>=90), 200 mg, 12 weeks

CC(C)n1cc(C#N)c2cc(-n3cc(C(=O)O)cn3)ccc21 [Example 1, 1-(3-cyano-1-isopropyl-indol-5-yl)pyrazol-4-carboxylic acid]
AUEC0-24, ratio of geometric LS means (serum uric acid [1]; Mild/Normal): 0.980 | Cmean, 24, ratio of geometric LS means (serum uric acid [1]; Mild/Normal): 0.988 | Emax, ratio of geometric LS means (serum uric acid [1]; Mild/Normal): 0.979 | AUEC0-24, ratio of geometric LS means (serum uric acid [1]; Moderate/Normal): 1.02 | Cmean, 24, ratio of geometric LS means (serum uric acid [1]; Moderate/Normal): 1.03 | Emax, ratio of geometric LS means (serum uric acid [1]; Moderate/Normal): 1.02 | AUEC0-24, ratio of geometric LS means (serum uric acid [1]; Severe/Normal): 1.05 | Cmean, 24, ratio of geometric LS means (serum uric acid [1]; Severe/Normal): 1.03 | Emax, ratio of geometric LS means (serum uric acid [1]; Severe/Normal): 0.911 | GLSMRs for Cmean,24, Emax and AUEC0-24 of sUA (serum uric acid [1]; across all renal function impairment groups versus normal): approximately 1 | AUEC0-24 of serum uric acid (baseline corrected), geometric LS mean (serum uric acid [1]; mild impairment): 111 mg·h/dL | Cmean, 24 of serum uric acid (baseline corrected), geometric LS mean (serum uric acid [1]; mild impairment): 4.53 mg/dL | Emax of serum uric acid (baseline corrected), geometric LS mean (serum uric acid [1]; mild impairment): 4.43 mg/dL | AUEC0-24 of serum uric acid (baseline corrected), geometric LS mean (serum uric acid [1]; moderate impairment): 115 mg·h/dL | Cmean, 24 of serum uric acid (baseline corrected), geometric LS mean (serum uric acid [1]; moderate impairment): 4.74 mg/dL | Emax of serum uric acid (baseline corrected), geometric LS mean (serum uric acid [1]; moderate impairment): 4.63 mg/dL | AUEC0-24 of serum uric acid (baseline corrected), geometric LS mean (serum uric acid [1]; [3]): 113 mg·h/dL | Cmean, 24 of serum uric acid (baseline corrected), geometric LS mean (serum uric acid [1]; [3]): 4.59 mg/dL | Emax of serum uric acid (baseline corrected), geometric LS mean (serum uric acid [1]; [3]): 4.52 mg/dL | AUEC0-24 of serum uric acid (baseline corrected), geometric LS mean (serum uric acid [1]; severe impairment): 119 mg·h/dL | Cmean, 24 of serum uric acid (baseline corrected), geometric LS mean (serum uric acid [1]; severe impairment): 4.72 mg/dL | Emax of serum uric acid (baseline corrected), geometric LS mean (serum uric acid [1]; severe impairment): 4.12 mg/dL | average maximum degree of reduction in serum uric acid (serum uric acid [2]; 50 mg): 46.7% | patients with serum uric acid concentration <4 mg/dL (serum uric acid [2]; 50 mg/day oral, 12 weeks): 18% (6/34 people) | patients with serum uric acid concentration <6 mg/dL (serum uric acid [2]; 50 mg/day oral, 12 weeks): 59% | average serum uric acid concentration (serum uric acid [2]; 50 mg/day): 5.5 mg/dL | average maximum degree of reduction in serum uric acid (serum uric acid [2]; 100 mg): 50.6% | patients with serum uric acid concentration <4 mg/dL (serum uric acid [2]; 100 mg/day oral, 12 weeks): 29% (11/38 people) | patients with serum uric acid concentration <6 mg/dL (serum uric acid [2]; 100 mg/day oral, 12 weeks): 63% | average serum uric acid concentration (serum uric acid [2]; 100 mg/day): 4.9 mg/dL | average maximum degree of reduction in serum uric acid (serum uric acid [2]; 200 mg): 66.8% | patients with serum uric acid concentration <4 mg/dL (serum uric acid [2]; 200 mg/day oral, 12 weeks): 54% (20/37 people) | patients with serum uric acid concentration <6 mg/dL (serum uric acid [2]; 200 mg/day oral, 12 weeks): 78% | patients with serum uric acid concentration <4 mg/dL (serum uric acid [2]; [4]): 54% | patients with serum uric acid concentration <5 mg/dL (serum uric acid [2]; [4]): 62% | average serum uric acid concentration (serum uric acid [2]; 200 mg/day): 3.8 mg/dL | serum uric acid concentration kept within the normal range during the dosing period (serum uric acid [2]; doses of 50 mg, 100 mg and 200 mg, from week 2, FIG. 2): < 6.0 mg/dL | patients adjusted to serum uric acid <5.0 mg/dL (serum uric acid [2]; [5]): 33% | patients adjusted to serum uric acid <6.0 mg/dL (serum uric acid [2]; [5]): 53% | patients adjusted to serum uric acid <5.0 mg/dL (serum uric acid [2]; [6]): 44% | patients adjusted to serum uric acid <6.0 mg/dL (serum uric acid [2]; [6]): 67% | patients adjusted to serum uric acid <5.0 mg/dL (serum uric acid [2]; [7]): 55% | patients adjusted to serum uric acid <6.0 mg/dL (serum uric acid [2]; [7]): 77% | patients adjusted to serum uric acid <5.0 mg/dL (serum uric acid [2]; [8]): ≥ 50% | patients adjusted to serum uric acid <6.0 mg/dL (serum uric acid [2]; [8]): ≥ 50% | patients adjusted to serum uric acid <5.0 mg/dL (serum uric acid [2]; [9]): 53% | patients adjusted to serum uric acid <6.0 mg/dL (serum uric acid [2]; [9]): 59% | patients adjusted to serum uric acid <5.0 mg/dL (serum uric acid [2]; [10]): 43% | patients adjusted to serum uric acid <6.0 mg/dL (serum uric acid [2]; [10]): 57% | patients adjusted to serum uric acid <5.0 mg/dL (serum uric acid [2]; [11]): 71% | patients adjusted to serum uric acid <6.0 mg/dL (serum uric acid [2]; [11]): 79%
